Reference: patent publication US20260194517A1, “FRUCTOSE-1,6-DIPHOSPHATE OPTICAL PROBE, AND PREPARATION METHOD THEREFOR AND USE THEREOF” (EAST CHINA UNIVERSITY OF SCIENCE AND TECHNOLOGY, priority 2022, published 2026)

Test system: H1299 cells
Assay: Dynamic monitoring of cytoplasmic fructose-1,6-bisphosphate in H1299 cells expressing the optical probe
Assay type: cell-based
Conditions: 0.5 mM 3-BrPA in HBSS, 30-min period, H1299 cells with cytoplasm-expressed probe
Method: • 1. The pCDNA3.1+-based fructose-1,6-bisphosphate optical probe plasmid was transfected into HEK293 cells by the transfection reagent Lipofectamine2000 (Invitrogen), and cultured in a cell incubator at 37° C., 5% CO2. Fluorescence detection was performed 24-36 h after the exogenous gene was fully expressed. • 2. After induction of expression, adherent HEK293 cells were washed three times with PBS and placed in HBSS solution for fluorescence microscopy and microplate reader assays, respectively.
After H1299 cells were transfected with the cytoplasm-expressed optical probe plasmid for 36 h, they were washed with PBS and placed in HBSS solutions containing 0 mM 3-BrPA and 0.5 mM 3-BrPA, and the changes in the ratio of the fluorescence intensity at 528 nm emission and at 420 nm excitation and the fluorescence intensity at 528 nm emission at 485 nm excitation were detected over a 30-min period.
With `O=C(O)C(=O)CBr` [3-BrPA] the “ratio of 420/485, maximum relative to the initial value” was 3.7 times the initial value.

Test system: not listed separately
Assay: Screening of linker-mutated cpYFP optical probes for response to fructose-1,6-bisphosphate
Assay type: biochemical
Conditions: linker mutants of CggR(88-340)-cpYFP; 485 nm/420 nm signal ratio of sample relative to control
Excerpt: The invention also provides use of fructose-1,6-bisphosphate optical probes in real-time localization, quantitative detection and high-throughput compound screening of fructose-1,6-bisphosphate. In one aspect, the fructose-1,6-bisphosphate optical probe, preferably linked with signal peptides at different parts of the cell, is transferred into cells for real-time localization of fructose-1,6-bisphosphate by detecting the strength of fluorescence signals in cells, corresponding quantitative detection of fructose-1,6-bisphosphate is performed by a fructose-1,6-bisphosphate standard titration curve. […] In the embodiment involving cpYFP, the ratio is the ratio of the ratio of the sample's 485-nanometer fluorescence signal to the 420-nanometer fluorescence signal to the corresponding ratio of the control. The fructose-1,6-bisphosphate standard titration curve of the present invention is drawn based on the fluorescence signal of the fructose-1,6-bisphosphate optical probe under different concentrations of fructose-1,6-bisphosphate. The fructose-1,6-bisphosphate optical probe described herein is directly transferred into cells, which is more accurate without time-consuming sample processing process during the real-time localization and quantitative detection of fructose-1,6-bisphosphate. When the fructose-1,6-bisphosphate optical probe of the present invention is used for high-throughput compound screening, different compounds are added to the cell culture fluid, and the change of fructose-1,6-bisphosphate content is measured, so as to screen out compounds that affect the change of fructose-1,6-bisphosphate content.
• 1. An expression vector (such as a pCDF-based fructose-1,6-bisphosphate optical probe expression vector) was transform into BL21 (DE3) cells, and invert-cultured overnight, and clones were picked from the plate into a 250 ml Erlenmeyer flask, and placed in a 37° C. shaker, cultured at 220 rpm to OD=0.4-0.8, add 1/1000 (v/v) IPTG (1 M), and induced expression at 18° C. for 24-36 h. • 2. After induction, cells were harvested by centrifugation at 4000 rpm for 30 min, resuspended in 50 mM phosphate buffer and disrupted ultrasonically until the broth were clear, centrifuged at 9600 rpm at 4° C. for 20 min. • 3. The centrifuged supernatant was purified by a self-packed nickel-column affinity chromatography column to obtain the protein, and the protein after nickel-column affinity chromatography was then passed through a self-packed desalting column to obtain the protein dissolved in 100 mM HEPES buffer (pH 7.4). • 4. After the purified protein was identified by SDS-PAGE, the probe was diluted with assay buffer (100 mM HEPES, 100 mM NaCl, pH 7.4) into a protein solution with a final concentration of 0.2-5 μM. Fructose-1,6-bisphosphate was prepared as a stock solution at a final concentration of 50 mM with assay buffer (100 mM HEPES, 100 mM NaCl, pH 7.4). • 5. 100 μl of 1 μM protein solution was taken and incubated at 37° C. for 10 min, […], and measured the fluorescence intensity of the protein at 528 nm after excitation at 420 nm and fluorescence intensity of the protein at 528 nm after excitation at 485 nm. The fluorescence excitation and emission measurement of the samples were completed by a multifunctional fluorescence microplate reader. • 6.100 μl of 1 μM protein solution was taken, incubated at 37° C. for 10 min, tryptophan was added, and measured the absorption and fluorescence spectra of the protein. The determination of the absorption spectrum and fluorescence spectrum of the sample was completed by a spectrophotometer and a fluorescence spectrophotometer.
Optical probe mutants were constructed based on PCDF-CggR(88-340)-176/177-CPYFP, PCDF-CggR(88-340)-176/178-CPYFP, PCDF-CggR(88-340)-177/181-CPYFP, PCDF-CggR(88-340)-179/180-CPYFP, PCDF-CggR(88-340)-182/184-CPYFP, PCDF-CggR(88-340)-182/185-CPYFP, PCDF-CggR(88-340)-203/206-CPYFP, PCDF-CggR(88-340)-203/207-CPYFP and PCDF-CggR-203/208(88-340)-CPYFP. […]
For “Serial number 4: cpYFP at 176/177 of CggR(88-340); CggR: G177M/L178N; SEQ ID NO: 10”, the “Standardized fluorescence signal ratio” value was 4.54. For “Serial number 7: cpYFP at 176/177 of CggR(88-340); CggR: G177M/L178N/Q185A; SEQ ID NO: 11”, the “Standardized fluorescence signal ratio” value was 4. For “Serial number 8: cpYFP at 176/177 of CggR(88-340); CggR: G177M/L178N/Q185T; SEQ ID NO: 12”, the “Standardized fluorescence signal ratio” value was 4. For “Serial number 9: cpYFP at 176/177 of CggR(88-340); CggR: G177M/L178N/Q185D; SEQ ID NO: 13”, the “Standardized fluorescence signal ratio” value was 4.17. For “Serial number 16: cpYFP at 182/184 of CggR(88-340); CggR: N184V/Q185P/D181E/V182G/G177L CPYFP: Y1V; SEQ ID NO: 14”, the “Standardized fluorescence signal ratio” value was 11.6. In the case of “Serial number 17: cpYFP at 182/184 of CggR(88-340); CggR: N184V/Q185P/D181E/V182G/G177L CPYFP: Y1I; SEQ ID NO: 15”, the “Standardized fluorescence signal ratio” value was 12. For “Serial number 20: cpYFP at 182/184 of CggR(88-340); CggR: N184V/Q185P/D181E/V182G CPYFP: Y1V; SEQ ID NO: 16”, the “Standardized fluorescence signal ratio” value was 9.6.
